Measurements: patent US9206123B2, “Prodrugs of inhibitors of plasma kallikrein” (ActiveSite Pharmaceuticals, Inc., priority 2009, dated 2015)
“Also recorded” adds a separate entry of the source. Non-standard residues stand in square brackets, D forms with d. *: point of attachment. CH2Cl = ClC*

Tests used:
[1] = test system: retinal vascular permeability; conditions: angiotensin-II-treated rodents; Phipps et al. 2009; cited from earlier work
[2] = test system: ischemic stroke; conditions: rat model of ischemic stroke; cited from earlier work
[3] = test system: hemorrhagic stroke; conditions: model of hemorrhagic stroke; cited from earlier work
[4] = test system: retinal vascular permeability; test: Angiotensin-II infusion model, retinal vascular permeability by vitreous fluorescein fluorophotometry; assay type: in vivo, Sprague-Dawley rats; conditions: twice-daily oral gavage for five days
Source text: Continuous infusion of the vasoconstrictor peptide angiotensin-II in Sprague-Dawley rats over 3-7 days using subcutaneously implanted Alzet minipumps results in elevated blood pressure, and is accompanied by increased retinal vascular permeability, which can be measured using the technique of vitreous fluorescein fluorophotometry, as described in the prior art (Clermont, A. C., et al (2006) Invest Ophthalmol V is Sci.; 47: 2701-8). […] Inhibition of the excess retinal vascular permeability in this animal model following administration of compounds of the present invention via oral, subcutaneous, topical or intravitreal routes thus provides evidence of inhibition of plasma kallikrein in vivo.

[5] = target: T1, Human plasma kallikrein (PK) (Homo sapiens, UniProt P03952); test: Human plasma kallikrein (PK) enzymatic inhibition assay, substrate H-D-Pro-Phe-Arg-pNA; assay type: biochemical; conditions: corrected Ki from Ki,app; 2 nM PK, 0.05 M HEPES pH 7.5, Km 0.33 mM
T1 construct: purchased Enzyme Research Laboratories (Gary, Ind.)
T1 sequence (P03952 391-638 limits assumed): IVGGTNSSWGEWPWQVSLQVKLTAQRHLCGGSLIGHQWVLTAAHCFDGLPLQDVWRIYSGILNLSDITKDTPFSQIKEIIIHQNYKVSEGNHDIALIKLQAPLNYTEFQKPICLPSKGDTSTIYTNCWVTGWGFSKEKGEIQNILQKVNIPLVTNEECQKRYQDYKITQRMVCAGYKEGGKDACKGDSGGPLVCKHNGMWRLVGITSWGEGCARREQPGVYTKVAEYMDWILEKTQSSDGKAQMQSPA
T1 sequence (P03952 20-390 partner limits assumed): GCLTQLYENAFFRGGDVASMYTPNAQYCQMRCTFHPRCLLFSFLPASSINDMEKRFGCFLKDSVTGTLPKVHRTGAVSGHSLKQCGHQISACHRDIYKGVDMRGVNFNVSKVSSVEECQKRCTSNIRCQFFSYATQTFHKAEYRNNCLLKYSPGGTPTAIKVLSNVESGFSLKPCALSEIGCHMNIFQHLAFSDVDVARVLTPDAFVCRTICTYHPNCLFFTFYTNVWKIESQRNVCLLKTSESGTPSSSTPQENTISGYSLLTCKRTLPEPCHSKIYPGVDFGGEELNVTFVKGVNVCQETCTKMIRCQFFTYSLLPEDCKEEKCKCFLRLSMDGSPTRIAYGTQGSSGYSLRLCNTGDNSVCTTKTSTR
Method: Human plasma kallikrein (PK) was obtained from Enzyme Research Laboratories (Gary, Ind.). The enzymatic activity of PK was assayed using the synthetic peptide substrate H-D-Pro-Phe-Arg-pNA (Bachem, Peninsula City, Calif.) with the cleavage of the substrate by the enzyme resulting in an increase in A405, measured using a Molecular Devices Vmax Kinetic Microplate Reader. The uninhibited (control) activity of PK was determined by adding 190 μl of PK solution (2 nM in 0.05 M HEPES, pH 7.5, 0.01% Triton X-100) to 10 μl of H-D-Pro-Phe-Arg-pNA (2 mM in DMSO) in individual microtiter plate wells, mixed immediately by shaking, and the rate of increase in absorbance at 405 nm (A405) determined over 120-180 sec. In parallel, compounds of general formula V were mixed in separate wells with the synthetic substrate to attain final concentrations of between 0.01-10 μM in the final 200 μl reaction mixture, and the reaction initiated by the addition of 190 μl of the PK solution. A diminished rate of cleavage in the presence of a compound of general formula V denotes inhibition of PK activity, and the apparent inhibition constant (Ki,app) of the interaction can be determined by using the following equation— Ki,app=[I]/(PKControl/PKI−1) where [I]=concentration of inhibitory compound, PKcontrol=rate of substrate cleavage by uninhibited PK, PKI=rate of substrate cleavage by PK in the presence of inhibitory compound.
The corrected Ki of the interaction can be obtained as follows from the calculated Ki,app— Ki=Ki,app/([S]/Km+1) Where [S]=concentration of synthetic substrate, and Km=Michaelis constant of synthetic substrate for PK, in this case determined experimentally to be 0.33 mM under these conditions.

[6] = test system: arthritis; conditions: rat models of arthritis; cited from earlier work
[7] = test system: hereditary angioedema; conditions: patients with hereditary angioedema; cited from earlier work
[8] = test system: sepsis; conditions: LPS or bacterial induced sepsis in animals; cited from earlier work
[9] = test system: middle cerebral artery occlusion; conditions: mouse model of middle cerebral artery occlusion; cited from earlier work
[10] = test system: sepsis; conditions: sepsis patients; cited from earlier work

N=C(N)c1ccc(CNC(=O)c2cnn(Cc3ccccc3)c2)cc1 [ASP-440]
effect on retinal vascular permeability [1]: reduce retinal vascular permeability; also recorded: effective in reducing retinal vascular permeability | effect on infarction volume and cerebrovascular edema [2]: reduce infarction volume and cerebrovascular edema | effect on expansion of intracerebral hemorrhage [3]: reduce

COC(=O)/N=C(\N)c1ccc(CNC(=O)c2cc(C)n(-c3ccc(F)cc3)c2C)cc1 [Example 4, (Z)-methyl amino-(4-((1-(4-fluorophenyl)-2,5-dimethyl-pyrrole-3-carbonylamino)methyl)phenyl)methylenecarbamate]
reduction of retinal vascular permeability [4]: 55%

Cc1cc(C(=O)NCc2ccc(C(=N)N)cc2)c(C)n1-c1ccc(F)cc1 [Example 11, N-[(4-carbamimidoylphenyl)methyl]-1-(4-fluorophenyl)-2,5-dimethyl-pyrrole-3-carboxamide]
Ki [5]: 13 nM

Cc1cc(C(=O)NCc2ccc(C(=N)N)cc2)c(C)n1-c1ccc(Cl)cc1 [Example 12, N-[(4-carbamimidoylphenyl)methyl]-1-(4-chlorophenyl)-2,5-dimethyl-pyrrole-3-carboxamide]
Ki [5]: 7 nM

COc1ccc(-n2c(C)cc(C(=O)NCc3ccc(C(=N)N)cc3)c2C)cc1 [Example 13, N-[(4-carbamimidoylphenyl)methyl]-1-(4-methoxyphenyl)-2,5-dimethyl-pyrrole-3-carboxamide]
Ki [5]: 17 nM

Cc1cc(C(=O)NCc2ccc(C(=N)N)cc2)c(C)n1-c1ccc2c(c1)OCCO2 [N-[(4-carbamimidoylphenyl)methyl]-1-(2,3-dihydro-1,4-benzodioxin-6-yl)-2,5-dimethyl-pyrrole-3-carboxamide]
Ki [5]: 14 nM

Cc1cc(C(=O)NCc2ccc(C(=N)N)cc2)c(C)n1-c1ccccn1 [N-[(4-carbamimidoylphenyl)methyl]-2,5-dimethyl-1-(2-pyridyl)pyrrole-3-carboxamide]
Ki [5]: 35 nM

Cc1cc(C(=O)NCc2ccc(C(=N)N)cc2)c(C)n1-c1cccnc1 [N-[(4-carbamimidoylphenyl)methyl]-2,5-dimethyl-1-(3-pyridyl)pyrrole-3-carboxamide]
Ki [5]: 46 nM

Cc1cc(C(=O)NCc2ccc(C(=N)N)cc2)c(C)n1-c1nccs1 [N-[(4-carbamimidoylphenyl)methyl]-2,5-dimethyl-1-thiazol-2-yl-pyrrole-3-carboxamide]
Ki [5]: 68 nM

Cl.NCC1CCC(C(=O)N[C@@H](Cc2ccccc2)C(=O)Nc2ccc(CC(=O)O)cc2)CC1 (stereo partly drawn) [PKSI-527]
effect on joint swelling [6]: reduce joint swelling

NC(N)=NCCC[C@@H](N)C(=O)N[C@@H](CCCN=C(N)N)C(=O)N1CCC[C@H]1C(=O)N1C[C@H](O)C[C@H]1C(=O)NCC(=O)N[C@@H](Cc1cccs1)C(=O)N[C@@H](CO)C(=O)N1Cc2ccccc2C[C@@H]1C(=O)N1[C@H](C(=O)N[C@@H](CCCN=C(N)N)C(=O)O)C[C@@H]2CCCC[C@@H]21 [icatibant]
effect on edema / hereditary angioedema [7]: effective in treating hereditary angioedema

H-[dP]-Phe-Arg-CH2Cl [reference compound]
effect on vascular permeability and lesions [8]: reduce vascular permeability in multiple organs and reduce lesions

Hoe-140
effect on retinal vascular permeability [1]: reduce retinal vascular permeability

B1: C1-INH: the major endogenous inhibitor of PK (protein, UniProt P05155 23-500, looked up)
Plasma protease C1 inhibitor: NPNATSSSSQDPESLQDRGEGKVATTVISKMLFVEPILEVSSLPTTNSTTNSATKITANTTDEPTTQPTTEPTTQPTIQPTQPTTQLPTDSPTQPTTGSFCPGPVTLCSDLESHSTEAVLGDALVDFSLKLYHAFSAMKKVETNMAFSPFSIASLLTQVLLGAGENTKTNLESILSYPKDFTCVHQALKGFTTKGVTSVSQIFHSPDLAIRDTFVNASRTLYSSSPRVLSNNSDANLELINTWVAKNTNNKISRLLDSLPSDTRLVLLNAIYLSAKWKTTFDPKKTRMEPFHFKNSVIKVPMMNSKKYPVAHFIDQTLKAKVGQLQLSHNLSLVILVPQNLKHRLEDMEQALSPSVFKAIMEKLEMSKFQPTLLTLPRIKVTTSQDMLSIMEKLEFFDFSYDLNLCGLTEDPDLQVSAMQHQTVLELTETGVEAAAASAISVARTLLVFEVQQPFLFVLWDQQHKFPVFMGRVYDPRA
effect on infarct size [9]: reduced infarct size | effect on vascular permeability and lesions [8]: reduce vascular permeability in multiple organs and reduce lesions | clinical outcome [10]: Clinical improvement
